Results as given in US20040039014A1, “Methods and compounds for treating depression and other disorders” (NPS Pharmaceuticals, Inc., priority 1998, published 2004).
pIC50, pKi: −log10 of the molar value. Structures can show the parent of a compound that is named as a salt. Where two headings read alike, the source gives them in different places. Each block holds one compound with its values, some of them ahead of it.

Legend:
NMDA receptor = molecular target: T1, NMDA receptor; assay: [3H]MK-801 binding assay (rat cortex synaptic plasma membranes); conditions: read-out: [3H]MK-801 data IC50, Table I
T1 construct: rat cortex membranes
Protocol: Synaptic plasma membranes (SPMs) from rat cortex were prepared as follows. Isolated cerebral cortices from male and female rats were purchased from Pel-Freez (Rogers, Ariz.) in bulk, and stored at −80° C. The cortices from 25 rats were thawed and pooled. […] The resulting homogenates were centrifuged for 10 min at 1,000×g in a T865 rotor, UltraPro80 Sorvall Centrifuge. The supernatant was removed and subsequently centrifuged at 30,000×g for 30 min. […] Membranes were washed by re-suspension in 500 ml of 5 mM K-EDTA (pH 7.0), incubated at 32° C. for 30 min with stirring, and centrifuged at 100,000×g for 30 min. The final pellet was resuspended in 60 ml of […] K-EDTA (pH 7.0) and stored in aliquots at −80° C. The extensive washing procedure utilized in this assay was designed to minimize the concentrations of glutamate and glycine (co-agonists at the NMDA receptor-ionophore complex) present in the membrane preparation.
On the day of assay, aliquots of SPM were thawed and resuspended in 75 vols of 5 mM K-EDTA, pH 7.0. SPM were centrifuged at 100,000×g for 30 min at 4° C.
The SPM pellet was resuspended in assay buffer (30 mM EPPS, 1 mM K-EDTA, pH 7.0) by polytron. […] Binding was started by the addition of the tissue homogenate. The assay was terminated by the addition of 4 ml ice-cold buffer, followed by filtration over glass-fiber filters (Schleicher & Schuell No. 30) on a Millipore 12-well filtration manifold. Filters were washed with another 3 ×4 ml ice-cold buffer (pH 7.0). Radioactivity on the filters was measured using Fisherbrand Scinti-Safe scintillation cocktail. Samples were shaken for 45-60 min on a shaker platform to solubilize the radioactivity. Counting for ^3H was performed in a Beckman 6000IC LS Scintillation Counter for 4 min per sample.

[1] = molecular target: T2, dopamine transporter site (Cavia porcellus, UniProt H0WCX4); assay: Dopamine reuptake inhibition assay ([3H]WIN 35428 binding, guinea pig striatal membranes); conditions: for inhibition at 0.1 µM / inhibition at 10 µM: read-out: DA Uptake mean % inhibition; for pKi: read-out: DA Uptake Ki
T2 construct: tissue NovaScreen (performed the assay); host or cells: guinea pig striatal membranes
Protocol: (§1) Monoamine Transporter Minding Assays
(§2) Monoamine transporter binding assays (reuptake inhibition assays) were performed by NovaScreen using standard radioligand binding assays. The transporter binding assays are described briefly below:
Dopamine Reuptake Inhibition Assay:
Reactions were terminated by rapid vacuum filtration onto glass fiber filters. Bound radioactivity was determined using liquid scintillation spectrometry and experimental values were compared to control values to determine binding to the dopamine transporter site based on Madras, et al., Molec.

[2] = molecular target: T3, serotonin transporter site (Rattus norvegicus, UniProt P31652); assay: Serotonin reuptake inhibition assay ([3H]citalopram binding, rat forebrain membranes); conditions: Table I; for inhibition at 0.1 µM: @ 100 nM (top number); for inhibition at 0.1 µM / inhibition at 10 µM: read-out: 5-HT Uptake mean % inhibition; for inhibition at 10 µM: @ 10.0 μM (bottom number); for pKi: read-out: 5-HT Uptake Ki
T3 construct: tissue NovaScreen (performed the assay); host or cells: rat forebrain membranes
Protocol: as §1, §2
Serotonin Reuptake Inhibition Assay
Rat forebrain membranes were incubated with 0.7 nM [^3H] citalopram, N-methyl, (70-87 Ci/mmol)in 50 mM Tris-HCl (pH 7.4), 120 mM NaCl, and 5 mM KCl at 25° C. for 60 minutes. […] Reactions were terminated by rapid vacuum filtration onto glass fiber filters.

[3] = molecular target: T4, norepinephrine transporter site (Rattus norvegicus, UniProt Q63380); assay: Norepinephrine reuptake inhibition assay ([3H]nisoxetine binding, rat forebrain membranes); conditions: for inhibition at 0.1 µM / inhibition at 10 µM: read-out: NE Uptake mean % inhibition; for pKi: read-out: NE Uptake Ki
T4 construct: tissue NovaScreen (performed the assay); host or cells: rat forebrain membranes
Protocol: as §1, §2
Norepinephrine Reuptake Inhibition Assay
Reactions were terminated by rapid vacuum filtration onto glass fiber filters.

[4] = @ 10.0 μM (bottom number), Table I

T2 sequence (H0WCX4 1-619): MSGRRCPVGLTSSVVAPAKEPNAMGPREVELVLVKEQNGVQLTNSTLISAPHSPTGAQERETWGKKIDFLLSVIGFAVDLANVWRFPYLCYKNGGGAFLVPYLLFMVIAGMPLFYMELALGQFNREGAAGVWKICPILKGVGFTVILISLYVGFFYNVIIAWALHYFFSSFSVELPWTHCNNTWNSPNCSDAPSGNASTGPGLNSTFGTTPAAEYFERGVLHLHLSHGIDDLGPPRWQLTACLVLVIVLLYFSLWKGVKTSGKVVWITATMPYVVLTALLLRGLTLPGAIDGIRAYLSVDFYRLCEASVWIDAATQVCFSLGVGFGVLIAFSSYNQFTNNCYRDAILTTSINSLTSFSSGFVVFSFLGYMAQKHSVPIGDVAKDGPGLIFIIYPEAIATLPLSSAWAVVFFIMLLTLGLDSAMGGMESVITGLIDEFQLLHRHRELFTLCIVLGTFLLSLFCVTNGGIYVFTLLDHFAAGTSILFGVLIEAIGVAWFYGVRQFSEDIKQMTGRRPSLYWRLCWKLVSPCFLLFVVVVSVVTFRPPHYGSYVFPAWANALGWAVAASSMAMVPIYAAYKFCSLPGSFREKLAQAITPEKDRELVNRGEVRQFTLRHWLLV
T3 sequence (P31652 whole entry): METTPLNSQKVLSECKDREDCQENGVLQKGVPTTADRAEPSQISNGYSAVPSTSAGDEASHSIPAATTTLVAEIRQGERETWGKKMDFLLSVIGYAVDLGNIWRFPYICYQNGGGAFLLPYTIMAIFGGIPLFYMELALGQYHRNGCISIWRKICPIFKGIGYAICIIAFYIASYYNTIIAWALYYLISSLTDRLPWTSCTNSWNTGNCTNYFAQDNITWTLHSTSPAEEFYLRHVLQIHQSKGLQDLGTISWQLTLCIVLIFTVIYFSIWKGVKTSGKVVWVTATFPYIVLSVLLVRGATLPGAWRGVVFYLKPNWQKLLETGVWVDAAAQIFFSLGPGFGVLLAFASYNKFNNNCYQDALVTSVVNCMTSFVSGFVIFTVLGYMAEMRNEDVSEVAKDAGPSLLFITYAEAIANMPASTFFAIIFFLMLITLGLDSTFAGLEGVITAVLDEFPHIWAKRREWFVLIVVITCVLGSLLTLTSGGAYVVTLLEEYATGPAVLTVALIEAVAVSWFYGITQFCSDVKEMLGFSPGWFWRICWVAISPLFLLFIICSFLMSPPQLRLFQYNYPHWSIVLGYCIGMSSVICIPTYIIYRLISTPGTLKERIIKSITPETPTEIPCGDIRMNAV
T4 sequence (Q63380 1-617): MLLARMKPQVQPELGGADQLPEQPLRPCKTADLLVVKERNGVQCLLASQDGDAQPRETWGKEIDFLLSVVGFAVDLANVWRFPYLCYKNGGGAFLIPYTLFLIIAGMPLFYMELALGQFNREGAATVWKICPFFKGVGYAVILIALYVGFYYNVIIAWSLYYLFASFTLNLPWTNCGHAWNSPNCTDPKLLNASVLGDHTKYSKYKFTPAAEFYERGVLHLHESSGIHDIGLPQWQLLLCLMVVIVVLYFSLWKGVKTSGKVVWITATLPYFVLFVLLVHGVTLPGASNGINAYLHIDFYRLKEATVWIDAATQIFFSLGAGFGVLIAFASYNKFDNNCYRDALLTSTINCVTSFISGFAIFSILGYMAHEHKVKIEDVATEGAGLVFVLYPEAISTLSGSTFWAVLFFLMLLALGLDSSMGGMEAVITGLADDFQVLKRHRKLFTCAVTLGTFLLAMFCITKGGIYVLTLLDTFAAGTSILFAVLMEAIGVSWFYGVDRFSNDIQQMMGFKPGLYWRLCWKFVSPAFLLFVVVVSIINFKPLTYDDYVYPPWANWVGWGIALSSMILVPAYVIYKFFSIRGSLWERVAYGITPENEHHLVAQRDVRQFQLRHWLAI

SMILES: CC(CN)C(c1cccc(Cl)c1)c1cccc(Cl)c1 (centres unmarked) [Compound 46]
pIC50 (NMDA receptor): 5.28
inhibition at 0.1 µM [1]: 40.2%
inhibition at 10 µM [1]: 97.1%
inhibition at 0.1 µM [2]: 10.4%
inhibition at 10 µM [2]: 75.4%
inhibition at 0.1 µM [3]: 7.4%
inhibition at 10 µM [3]: 64%

SMILES: Cc1ccccc1C(CCN)c1ccccc1C [Compound 65]
pIC50 (NMDA receptor): 5.70
pKi ([1]; Table I): 4.66
pKi [2]: 6.90

SMILES: NCCC(Oc1ccccc1)c1cccc(F)c1 (centres unmarked) [Compound 118]
pIC50 (NMDA receptor): 6.62
pKi ([1]; Table I): 5.39
pKi [2]: 6.88

SMILES: NCCC(Oc1cccc(F)c1)c1cccc(F)c1 (centres unmarked) [Compound 119, 3-(3-Fluorophenoxy)-3-(3-fluorophenyl)-1-propylamine]
inhibition at 0.1 µM [2]: 0.6%
inhibition at 10 µM [2]: 3.1%

SMILES: CNCCC(c1cccc(F)c1)c1cccc(OC)c1 (centres unmarked) [Compound 142]
pIC50 (NMDA receptor): 5.81

SMILES: NCCC1c2ccccc2CCc2ccccc21 [Compound 156, 5-(2-Aminoethyl)-5H-10,11-dihydrodibenzo [a, d] cycloheptene hydrochloride]
pIC50 (NMDA receptor): 7.05
pKi ([1]; Table I): < 5.00
pKi [2]: 5.92
pKi ([3]; Table I): 6.24

SMILES: Cc1ccccc1OC(CCN)c1ccccc1 (centres unmarked) [Compound 177]
pIC50 (NMDA receptor): 6.12
pKi ([1]; Table I): < 5.00
pKi [3]: 6.96

SMILES: NCCC1c2ccccc2Oc2ccccc21 [Compound 182]
pIC50 (NMDA receptor): 5.15

SMILES: NCCC1c2ccccc2Sc2ccccc21 [Compound 183]
pIC50 (NMDA receptor): 5.30

SMILES: NCCC1c2ccccc2C=Cc2ccccc21 [Compound 184]
pIC50 (NMDA receptor): 5.82

SMILES: NCC[C@@H](Oc1cccc(F)c1)c1ccccc1 [Compound 185, (R)-3-(3-Fluorophenoxy)-3-phenylpropylamine]
pKi ([1]; Table I): 5.96
pKi [2]: 5.62

SMILES: NCC[C@H](Oc1cccc(F)c1)c1ccccc1 [Compound 186]
pKi ([1]; Table I): 5.51

SMILES: NCCC1c2ccccc2COc2ccccc21 (centres unmarked) [Compound 187]
pIC50 (NMDA receptor): 5.70

SMILES: NCC[C@@H](Oc1cccc(F)c1)c1cccc(F)c1 [Compound 191]
pIC50 (NMDA receptor): 5.89
pKi ([1]; Table I): 5.81
pKi [2]: 6.87
pKi ([3]; Table I): 6.20

SMILES: NCC[C@H](Oc1cccc(F)c1)c1cccc(F)c1 [Compound 192]
pKi ([1]; Table I): 5.89
pKi [2]: 7.85
pKi ([3]; Table I): 6.49

SMILES: NCCC1c2cccc(F)c2CCc2c(F)cccc21 [Compound 193]
pIC50 (NMDA receptor): < 6.00

SMILES: NCCC1c2ccccc2CCc2c(F)cccc21 (centres unmarked) [Compound 196]
pIC50 (NMDA receptor): 5.65

SMILES: Fc1ccc([C@@H]2CCNC[C@H]2COc2ccc3c(c2)OCO3)cc1 [Paroxetine, reference compound]
inhibition at 0.1 µM [1]: < 20%

Further lines, results first:

pIC50 (NMDA receptor): 6.69
inhibition at 0.1 µM ([1]; @ 100 nM (top number), Table I): 0%
inhibition at 10 µM [1, 4]: 45.2%
inhibition at 0.1 µM [2]: 27.2%
inhibition at 10 µM [2]: 95.2%
inhibition at 0.1 µM ([3]; @ 100 nM (top number), Table I): 1.3%
inhibition at 10 µM [3, 4]: 66.6%
SMILES: Cc1ccc(F)cc1C(CCN)c1cc(F)ccc1C [Compound 58]

pIC50 (NMDA receptor): 6.34
inhibition at 0.1 µM ([1]; @ 100 nM (top number), Table I): 1.6%
inhibition at 10 µM [1, 4]: 77.6%
inhibition at 0.1 µM [2]: 14.3%
inhibition at 10 µM [2]: 85.7%
inhibition at 0.1 µM ([3]; @ 100 nM (top number), Table I): 7.4%
inhibition at 10 µM [3, 4]: 50.6%
SMILES: CCNCCC(c1cccc(F)c1)c1cccc(F)c1 [Compound 59]

pIC50 (NMDA receptor): 6.61
inhibition at 0.1 µM ([1]; @ 100 nM (top number), Table I): 64.3%
inhibition at 10 µM [1, 4]: 97.8%
inhibition at 0.1 µM [2]: 13.4%
inhibition at 10 µM [2]: 84.6%
inhibition at 0.1 µM ([3]; @ 100 nM (top number), Table I): 6.8%
inhibition at 10 µM [3, 4]: 76.2%
SMILES: N[C@H]1CCCC1C(c1cccc(F)c1)c1cccc(F)c1 (some centres unmarked) [Compound 63]

pIC50 (NMDA receptor): 6.07
pKi ([1]; Table I): 6.92
pKi [2]: 6.60
pKi ([3]; Table I): 6.29
SMILES: N[C@@H]1CCCC1C(c1cccc(F)c1)c1cccc(F)c1 (some centres unmarked) [Compound 64]

pIC50 (NMDA receptor): 5.92
inhibition at 0.1 µM ([1]; @ 100 nM (top number), Table I): 4.4%
inhibition at 10 µM [1, 4]: 92.8%
inhibition at 0.1 µM [2]: 6.1%
inhibition at 10 µM [2]: 67.5%
inhibition at 0.1 µM ([3]; @ 100 nM (top number), Table I): 4.2%
inhibition at 10 µM [3, 4]: 36.5%
SMILES: CNC[C@H](C)C(c1cccc(F)c1)c1cccc(F)c1 [Compound 66]

pIC50 (NMDA receptor): 6.44
SMILES: CN[C@@H](C)CC(c1cccc(F)c1)c1cccc(F)c1 [Compound 69]

pIC50 (NMDA receptor): 6.03
SMILES: CNCCC(c1ccccc1)c1cccc(F)c1 (centres unmarked) [Compound 108]

pIC50 (NMDA receptor): 7.13
SMILES: NCCC(Oc1cccc(Cl)c1)c1cccc(F)c1 (centres unmarked) [Compound 120]

pIC50 (NMDA receptor): 6.17
inhibition at 0.1 µM ([1]; @ 100 nM (top number), Table I): 1.8%
inhibition at 10 µM [1, 4]: 91.3%
inhibition at 0.1 µM [2]: 8.5%
inhibition at 10 µM [2]: 84.3%
inhibition at 0.1 µM ([3]; @ 100 nM (top number), Table I): 33.6%
inhibition at 10 µM [3, 4]: 94.9%
SMILES: COc1ccccc1OC(CCN)c1cccc(F)c1 (centres unmarked) [Compound 121]

pIC50 (NMDA receptor): 6.47
pKi ([1]; Table I): 5.55
pKi [2]: 7.21
pKi ([3]; Table I): 6.99
SMILES: NCCC(Oc1ccccc1F)c1cccc(F)c1 (centres unmarked) [Compound 122]

pIC50 (NMDA receptor): 6.20
inhibition at 0.1 µM ([1]; @ 100 nM (top number), Table I): 0%
inhibition at 10 µM [1, 4]: 87.4%
inhibition at 0.1 µM [2]: 3.5%
inhibition at 10 µM [2]: 81.1%
inhibition at 0.1 µM ([3]; @ 100 nM (top number), Table I): 16.6%
inhibition at 10 µM [3, 4]: 99.4%
SMILES: CNCCC(Oc1cccc(F)c1)c1cccc(F)c1 (centres unmarked) [Compound 145]

pIC50 (NMDA receptor): 6.43
SMILES: NCCC(Oc1ccccc1)c1cccc(Cl)c1 (centres unmarked) [Compound 148]

pIC50 (NMDA receptor): 6.82
SMILES: NCCC(Oc1cccc(Cl)c1)c1cccc(Cl)c1 (centres unmarked) [Compound 149]

pIC50 (NMDA receptor): 6.45
SMILES: NCCC(Oc1cccc(F)c1)c1cccc(Cl)c1 (centres unmarked) [Compound 150]

pIC50 (NMDA receptor): 5.90
SMILES: COc1ccccc1OC(CCN)c1ccccc1 (centres unmarked) [Compound 178]

pIC50 (NMDA receptor): 6.20
inhibition at 0.1 µM ([1]; @ 100 nM (top number), Table I): 0%
inhibition at 10 µM [1, 4]: 109%
inhibition at 0.1 µM [2]: 37.4%
inhibition at 10 µM [2]: 74.2%
inhibition at 0.1 µM ([3]; @ 100 nM (top number), Table I): 10.7%
inhibition at 10 µM [3, 4]: 32%
SMILES: Cc1ccccc1OC(CCN)c1cccc(F)c1 (centres unmarked) [Compound 181]

pIC50 (NMDA receptor): 6.43
SMILES: NCCC1c2cc(F)ccc2CCc2c(F)cccc21 (centres unmarked) [Compound 194]

pIC50 (NMDA receptor): 7.54
SMILES: NCCC1c2cc(F)ccc2CCc2ccc(F)cc21 [Compound 195]

pIC50 (NMDA receptor): 7.28
inhibition at 0.1 µM ([1]; @ 100 nM (top number), Table I): 0%
inhibition at 10 µM [1, 4]: 83.5%
inhibition at 0.1 µM [2]: 9.8%
inhibition at 10 µM [2]: 58.1%
inhibition at 0.1 µM ([3]; @ 100 nM (top number), Table I): 0%
inhibition at 10 µM [3, 4]: 27.5%
SMILES: NCCC1c2ccccc2CCc2ccc(F)cc21 (centres unmarked) [Compound 197]
